Experimental findings from patent publication US10577399B2, “Modified lantibiotics and methods of making and using the modified lantibiotics” (priority 2016, dated 2020) are described below.

Converted amounts (≈) assume the structure as drawn. Where two headings read alike, the source gives them in different places. No end group written: not given here.

For data set [1], the system named is C. accolens ATCC 49725. Description: MIC/MLC assay against C. accolens ATCC 49725. The data set is classed as cell-based. To be noted: THyex broth with 1% Tween 80.
Data set [2] concerns M. luteus ATCC 10240. Kind of data set: Deferred antagonism (overlay) assay, zone of inhibition. The conditions noted are these: relative to wild-type strain. The data set is classed as cell-based, Micrococcus luteus. As to the method: The deferred antagonism assay was performed as previously described^39. S. mutans strains were grown overnight in THyex broth at 37° C. The cultures were diluted to 0.1 OD OD600 and grown to mid-logarithmic phase before diluting to 0.05 OD600. Then, 2 μl of the cultures were spotted on THyex plates in duplicates of triplicates. The wild-type S. mutans JH1140 and S. mutans ΔmutA were used as positive and negative controls for activity, respectively. The plates were incubated for 18 hours in a candle jar at 37° C. After incubation, the strains were heat killed at 65° C. for 90 minutes. Fresh M. luteus grown overnight at 37° C. on THyex plates were used to inoculate pre-warmed THyex broth. The culture was grown to 0.6 to 0.8 OD before diluting to 0.2 OD600. The culture was further diluted 25-fold in melted (42° C.) THyex top agar. Approximately 5 mL of the top agar solution was spread on the heat killed bioassay plates and allowed to cool for 10 minutes. The plates were then placed in the incubator (at 37° C.) for 18 hours.
Streptococcus mutans ATCC 55676 (wild-type) and the mutants that were at an OD600 of 0.2 were spotted in triplicates on a pre-warmed THyex agar plate (150×15 mm) and allowed to dry. This assay was performed in this manner to ensure that each sample had the same colony size for comparing zones of inhibition. The plate was incubated for 24 hours then placed in an oven at 50° C. for thirty minutes to kill the bacteria before the indicator strain was overlaid. Heat killing the bacteria prevents any further antimicrobial compound production so that results seen are from single day incubation. Zone diameter was measured in millimeters across the plate and compared to wild-type (i.e. zone I for ATCC compared to zone I of Trp4Ala, etc.).

For data set [3], the system named is S. aureus ATCC 25923. Kind of data set: MIC/MLC assay against S. aureus. The data set is classed as cell-based, Staphylococcus aureus. To be noted: Table 11.
Data set [4] has as its system C. accolens KPL 1818. Description: MIC/MLC assay against C. accolens KPL 1818. The conditions noted are these: THyex broth with 1% Tween 80. The class given is cell-based.
Data set [5] has as its system M. luteus ATCC 10240. The data set is classed as cell-based, Micrococcus luteus. As to the method: (§1) Minimum Inhibitory Concentrations (MICs) were determined according to previously published protocol^31. A stock solution of the antibiotics tested was first suspended in 50% acetonitrile (ACN) at a concentration 640 μg/mL. This stock was subsequently diluted 2-fold until a final concentration 0.156 μg/mL was reached. Subsequently, 10 μl of each dilution was placed into a well on a 96 well microtiter plate. M. luteus ATCC 10240, S. pneumoniae, and B. subtilis PY79 were grown overnight in THyex at 37° C. Cultures were diluted in the morning to 0.1 OD600 and allowed to grow to 0.6 OD600. This culture was diluted a 100-fold in fresh THyex media and then 400 μl of this culture was added to 10 mL of fresh THyex. The suspension contains approximately 10^5 colony forming units (CFUs). The bacterial suspension (190 μL) was added to each well containing 10 μL of antibiotic suspension or solvent blank. […] Following the 15 minute pretreatment, 190 μL was added to each well as described above. The MIC is described as the […] concentration of antibiotic that prevented visible growth after 24 hours.
FIG. 11 illustrates the bioactivity of various core peptide mutants of mutacin 1130. The activity of the core mutant peptides is expressed as a ratio of the area of the zone of inhibition of each mutant strain to the area of the zone of inhibition of the wild-type strain against indicator strain of Micrococcus luteus. […] The deferred antagonism assay is an overlay assay of the indicator strain onto plates containing heat killed colonies of the mutacin producer strain after growing overnight. Core peptide mutants having inhibitory activity were isolated and the purified products were further evaluated by a standard minimum inhibitory concentration (MIC) assay.

For data set [6], the system named is S. pneumoniae ATCC 27336. The data set is classed as cell-based, Streptococcus pneumoniae. To be noted: Table 11. As to the method: as §1, with “hours. […]” for “hours.”
Data set [7] deals with B. subtilis PY79 cells. Description: Confocal microscopy localization of fluorescein labeled peptides. The data set is classed as cell-based, Bacillus subtilis. To be noted: 10 μg/mL, 15 minutes. As to the method: B. subtilis PY79 was grown and treated with fluorescein labeled peptide as previously described^39. A fresh plate of B. subtilis was used to inoculate THyex broth and incubated approximately 16 hours at 37° C. The culture was diluted 20-fold and placed back in the incubator for 3 hours at 37° C. Then, 100 μl of the culture was incubated with the antibiotic (10 μg/mL) for 15 minutes. The cells were pelleted and resuspended in 100 μl of phosphate buffer solution (PBS). The wash step was repeated three times before fixing with 1.6% formaldehyde in PBS. After fixation the cells were washed with PBS three more times and the remaining pellet was suspended in 50 μL of PBS. The sample (30 μL) was added to a slide and observed using an Olympus confocal microscope with a 100×/0.90 dry objective. A 488 nm argon laser was used to excite the fluorophore. For the competition assay, the bacterial culture was initially incubated with mu1140-COOH or native mutacin 1140 at a concentration of 10 μg/mL for 15 minutes, washed, and resuspended in fresh media. 10 μg/mL of fluorescein labeled nisin was then added for 15 minutes, before following the wash protocol previously stated.

Data set [8] can be described thus: Pharmacokinetics after intravenous dose in mice. The class given is in vivo. To be noted: 2.5 mg/kg i. v., BALB/c mice; at 70 minutes. As to the method: The compounds were dissolved in normal saline for all pharmacokinetic studies. An extraction protocol was developed in vitro by the addition of each compound to commercially bought BALB/c mouse serum. The compounds were extracted by the addition of 70% ACN containing 0.1% TFA/30% methanol containing 0.4% formic acid. The extract was then analyzed by LC-MS using a TSQ Vantage Triple Quad mass spectrometer. A standard curve was generated for each compound using known dilutions of the compounds in serum, which was then extracted. The R-squared values for each standard exceeded 0.98. BALB/c mice were used to evaluate pharmacokinetics of the compounds in vivo. A 2.5 mg/kg i. v. dose was evaluated for native mutacin, R13A, S5G, and double mutant S5A:T14G (FIG. 12A). A polynomial second order was used to estimate the peak plasma concentration and half-life of the R13A. […] Possibly, the Dhb14 residue may protect the peptide from trypsin-like proteases in the blood. […] Thus, taking the dynamics of cell death into account and the pharmacokinetics of the R13A, the R13A in serum is above the inhibitory concentration for S. pneumonia long enough to kill the pathogen.

Take “G15A*: core peptide mutant of mutacin 1140, Glycine 15 replaced by Alanine (FKSWSLCTPGCARTASFNSYCC; ends and bridges not checked; cysteine pairing not given here; UniProt O68586 42-63, looked up, variant G15A)”: in data set [1], the “C. accolens ATCC 49725 MIC” value worked out at 1 micrograms per milliliter and the “C. accolens ATCC 49725 MLC” value was 1 micrograms per milliliter. Moreover, the “zone of inhibition / inhibitory activity in deferred antagonism assay” value (from here on “zone of inhibition / inhibitory activity”) in data set [2] is listed as “no change in activity”. Further, in data set [3], the “S. aureus ATCC 25923 MIC” value is recorded as 16 micrograms per milliliter and the “S. aureus ATCC 25923 MLC” value stood at 16 micrograms per milliliter. Further, in data set [4], the “C. accolens KPL 1818 MIC” value is on record as 1 micrograms per milliliter and the “C. accolens KPL 1818 MLC” value worked out at 2 micrograms per milliliter. Besides, in data set [5] (Table 11), the “M. luteus ATCC 10240 MIC” value came to 0.125 micrograms per milliliter and the “M. luteus ATCC 10240 MLC” value turned out to be 0.125 micrograms per milliliter. For the same molecule, in data set [6], the “S. pneumonia ATCC 27336 MIC” value came out at 0.5 micrograms per milliliter and the “S. pneumonia ATCC 27336 MLC” value is reported as 0.5 micrograms per milliliter.

Take “fluorescein labeled nisin: nisin containing a C-terminal conjugate of fluorescein (ITSISLCTPGCKTGALMGCNMKTATCHCSIHVSK-fluorescein; ends and bridges not checked; also: lantibiotic thioether (lanthionine) rings and dehydrated residues, places not given here; UniProt P13068 24-57, looked up)”: the “in vivo localization pattern of fluorescein labeled peptide” value in data set [7] is “large green patches on the cell surface”; in data set [7] (listed as Fluorescein conjugated nisin) it was “binds and abducts lipid II to form patches”.

As for `C=C1NC(=O)[C@H](Cc2c[nH]c3ccccc23)NC(=O)[C@H](NC(=O)[C@H](CCCCN)NC(=O)[C@@H](N)Cc2ccccc2)CSC[C@@H](C(=O)N[C@H]2C(=O)N3CCC[C@H]3C(=O)NCC(=O)N[C@H](C(=O)N[C@@H](C)C(=O)N[C@@H](CCCNC(=N)N)C(=O)N/C(=C\C)C(=O)NCC(=O)N[C@@H]3CSC[C@@H]4NC(=O)[C@H](Cc5ccc(O)cc5)NC(=O)[C@@H](CS/C=C\NC4=O)NC(=O)[C@H](CC(N)=O)NC(=O)[C@H](Cc4ccccc4)NC3=O)CS[C@H]2C)NC(=O)[C@H](C)NC1=O` [Mutant Leu6Ala], the “zone of inhibition / inhibitory activity” value in data set [2] is “larger zone of inhibition”. In addition, the “MIC” value in data set [5] (Table 10, indicator strain Micrococcus luteus) amounted to 0.0625 µg/mL (≈ 0.0281 µM). Besides, in data set [5] (purified variants), the “activity relative to wild-type mutacin 1140 (M. luteus)” value was “two-fold more active”.

Turning to `C=C1NC(=O)[C@H](Cc2c[nH]c3ccccc23)NC(=O)[C@H](NC(=O)[C@H](C)NC(=O)[C@@H](N)Cc2ccccc2)CSC[C@@H](C(=O)N[C@H]2C(=O)N3CCC[C@H]3C(=O)NCC(=O)N[C@H](C(=O)N[C@@H](C)C(=O)N[C@@H](CCCNC(=N)N)C(=O)N/C(=C\C)C(=O)NCC(=O)N[C@@H]3CSC[C@@H]4NC(=O)[C@H](Cc5ccc(O)cc5)NC(=O)[C@@H](CS/C=C\NC4=O)NC(=O)[C@H](CC(N)=O)NC(=O)[C@H](Cc4ccccc4)NC3=O)CS[C@H]2C)NC(=O)[C@H](CC(C)C)NC1=O` [Mutant Lys2Ala], the “zone of inhibition / inhibitory activity” value in data set [2] is “larger zone of inhibition”. Also, in data set [5] (ATCC 10240), the “MIC” value amounted to 0.125 µg/mL (≈ 0.0566 µM).

Consider `CC(C)C[C@@H]1NC(=O)[C@H](C)NC(=O)[C@H](Cc2c[nH]c3ccccc23)NC(=O)C(NC(=O)[C@H](CCCCN)NC(=O)[C@@H](N)Cc2ccccc2)CSC[C@@H](C(=O)NC2C(=O)N3CCC[C@H]3C(=O)NCC(=O)N[C@H](C(=O)N[C@@H](C)C(=O)N[C@@H](CCCNC(=N)N)C(=O)NCC(=O)NCC(=O)NC3CSC[C@@H]4NC(=O)[C@H](Cc5ccc(O)cc5)NC(=O)[C@@H](CS/C=C\NC4=O)NC(=O)[C@H](CC(N)=O)NC(=O)[C@H](Cc4ccccc4)NC3=O)CSC2C)NC1=O` (stereo partly shown) [S5A:T14G], for which the “plasma level / clearance from blood” value in data set [8] is “performed the worst”.
